Data taken from patent publication US9695155B2, “Herbicidal substituted pyrimidinyloxy benzene compounds” (E. I. DU PONT DE NEMOURS AND COMPANY, priority 2013, dated 2017).

Tests used:
[1] = test system: ragweed; assay: Test A preemergence; format: in vivo, Ambrosia elatior; conditions: for Ragweed plant response rating (0 to 100 scale): 31 g ai/ha; for Plant response rating, Ragweed: 125 g ai/ha, 0 to 100 scale where 0 is no effect and 100 is complete control
Summary of the method: (§1)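 Greenhouse pot test, loam/sand soil. Formulation: non-phytotoxic solvent mix plus surfactant. Pre: directed spray onto soil after sowing. Post: plants at 1–2 leaf, 2–10 cm. Rated visually vs untreated controls at ~10 d, 0 (no effect) to 100 (complete control).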

[2] = test system: Italian ryegrass; assay: Test A postemergence; format: in vivo, Lolium multiflorum; conditions: 31 g ai/ha, 0 to 100 scale, 0 no effect, 100 complete control
Summary of the method: as §1

[3] = test system: barnyardgrass; assay: Test A postemergence; format: in vivo, Echinochloa crus-galli
Summary of the method: as §1

[4] = test system: galium; assay: Test A postemergence; format: in vivo, Galium aparine
Text: (§2) Seeds of plant species selected from barnyardgrass (Echinochloa crus-galli), kochia (Kochia scoparia), ragweed (common ragweed, Ambrosia elatior), Italian ryegrass (Lolium multiflorum), large (Lg) crabgrass (Digitaria sanguinalis), giant foxtail (Setaria faberii), morningglory (Ipomoea spp.), pigweed (Amaranthus retroflexus), velvetleaf (Abutilon theophrasti), wheat (Triticum aestivum), and corn (Zea mays) were planted into a blend of loam soil and sand and treated preemergence with a directed soil spray using test chemicals formulated in a non-phytotoxic solvent mixture which included a surfactant.
(§3) At the same time, plants selected from these crop and weed species and also blackgrass (Alopecurus myosuroides), and galium (catchweed bedstraw, Galium aparine) were planted in pots containing the same blend of loam soil and sand and treated with postemergence applications of test chemicals formulated in the same manner. Plants ranged in height from 2 to 10 cm and were in the one- to two-leaf stage for the postemergence treatment. Treated plants and untreated controls were maintained in a greenhouse for approximately 10 days, after which time all treated plants were compared to untreated controls and visually evaluated for injury. Plant response ratings, summarized in Table A, are based on a 0 to 100 scale where 0 is no effect and 100 is complete control. A dash (-) response means no test result.

[5] = test system: ragweed; assay: Test A postemergence; format: in vivo, Ambrosia elatior; conditions: 31 g ai/ha, 0 to 100 scale, 0 no effect, 100 complete control
Summary of the method: as §1

[6] = test system: kochia; assay: Test A postemergence; format: in vivo, Kochia scoparia
Text: as §2, §3

[7] = test system: blackgrass; assay: Test A postemergence; format: in vivo, Alopecurus myosuroides
Summary of the method: as §1

[8] = test system: kochia; assay: Test A preemergence; format: in vivo, Kochia scoparia; conditions: for Kochia plant response rating (0 to 100 scale): 31 g ai/ha; for Plant response rating, Kochia: 125 g ai/ha, 0 to 100 scale where 0 is no effect and 100 is complete control
Text: as §2, §3

[9] = test system: corn; assay: Test A postemergence; format: in vivo, Zea mays
Summary of the method: as §1

[10] = test system: giant foxtail; assay: Test A preemergence; format: in vivo, Setaria faberii; conditions: for Foxtail, Giant plant response rating (0 to 100 scale): 31 g ai/ha; for Plant response rating, Foxtail, Giant: 125 g ai/ha, 0 to 100 scale where 0 is no effect and 100 is complete control
Summary of the method: as §1

[11] = test system: sedge, umbrella; assay: Test B flooded paddy test; format: in vivo, Cyperus difformis; conditions: Flood, 250 g ai/ha; 0 to 100 scale where 0 is no effect and 100 is complete control
Summary of the method: (§4)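 Flooded to 3 cm at the 2-leaf stage, pots received compound through the paddy water and were kept at that depth under greenhouse conditions. After 13–15 days, effect was rated by eye relative to controls, 0 = none and 100 = complete control.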

[12] = test system: Italian ryegrass; assay: Test A preemergence; format: in vivo, Lolium multiflorum; conditions: for Ryegrass, Italian plant response rating (0 to 100 scale): 31 g ai/ha; for Plant response rating, Ryegrass, Italian: 125 g ai/ha, 0 to 100 scale where 0 is no effect and 100 is complete control
Text: as §2, §3

[13] = test system: Heteranthera limosa; assay: Test B flooded paddy test; format: in vivo; conditions: Flood, 250 g ai/ha; 0 to 100 scale where 0 is no effect and 100 is complete control
Summary of the method: as §4

[14] = test system: pigweed; assay: Test A preemergence; format: in vivo, Amaranthus retroflexus; conditions: for Pigweed plant response rating (0 to 100 scale): 31 g ai/ha; for Plant response rating, Pigweed: 125 g ai/ha, 0 to 100 scale where 0 is no effect and 100 is complete control
Summary of the method: as §1

[15] = test system: barnyardgrass; assay: Test A preemergence; format: in vivo, Echinochloa crus-galli; conditions: for Barnyardgrass plant response rating (0 to 100 scale): 31 g ai/ha; for Plant response rating, Barnyardgrass: 125 g ai/ha, 0 to 100 scale where 0 is no effect and 100 is complete control
Summary of the method: as §1

[16] = test system: wheat; assay: Test A postemergence; format: in vivo, Triticum aestivum; conditions: 31 g ai/ha, 0 to 100 scale, 0 no effect, 100 complete control
Summary of the method: as §1

[17] = test system: rice; assay: Test B flooded paddy test; format: in vivo, Oryza sativa; conditions: Flood, 250 g ai/ha; 0 to 100 scale where 0 is no effect and 100 is complete control
Summary of the method: as §4

[18] = test system: pigweed; assay: Test A postemergence; format: in vivo, Amaranthus retroflexus; conditions: 31 g ai/ha, 0 to 100 scale, 0 no effect, 100 complete control
Summary of the method: as §1

[19] = test system: barnyardgrass; assay: Test B flooded paddy test; format: in vivo, Echinochloa crus-galli; conditions: Flood, 250 g ai/ha; 0 to 100 scale where 0 is no effect and 100 is complete control
Summary of the method: as §4

[20] = test system: giant foxtail; assay: Test A postemergence; format: in vivo, Setaria faberii
Summary of the method: as §1

[21] = 31 g ai/ha, 0 to 100 scale, 0 no effect, 100 complete control
[22] = 125 g ai/ha, 0 to 100 scale where 0 is no effect and 100 is complete control

Row | Compound | Ragweed plant response rating (0 to 100 scale) [1] | Plant response rating, Ragweed [1] | Plant response rating, Ryegrass, Italian [2] | Plant response rating, Barnyardgrass [3, 21] | Plant response rating, Barnyardgrass [3, 22] | Plant response rating, Galium [4, 21] | Plant response rating, Galium [4, 22] | Plant response rating, Ragweed [5] | Plant response rating, Kochia [6, 21] | Plant response rating, Kochia [6, 22] | Plant response rating, Blackgrass [7, 21] | Plant response rating, Blackgrass [7, 22] | Kochia plant response rating (0 to 100 scale) [8] | Plant response rating, Kochia [8] | Plant response rating, Corn [9, 21] | Plant response rating, Corn [9, 22] | Foxtail, Giant plant response rating (0 to 100 scale) [10] | Plant response rating, Foxtail, Giant [10] | Plant response rating, Sedge, Umbrella [11] | Ryegrass, Italian plant response rating (0 to 100 scale) [12] | also measured
1 | Clc1cnc(Oc2ccccc2-n2ccnc2)nc1 [Compound 100] | 0 | 0 | 0 | 0 | 0 | 0 | 10 | 0 | 0 | 0 | 0 | 0 | 0 | 0 | 0 | 0 | 0 | 0 | 0 | 0 | Plant response rating, Ryegrass, Italian [12]: 0; Plant response rating, Ducksalad [13]: 0; Pigweed plant response rating (0 to 100 scale) [14]: 0; Plant response rating, Pigweed [14]: 0; Barnyardgrass plant response rating (0 to 100 scale) [15]: 0; Plant response rating, Barnyardgrass [15]: 0; Plant response rating, Wheat [16]: 0; Plant response rating, Rice [17]: 0; Plant response rating, Pigweed [18]: 0; Plant response rating, Barnyardgrass [19]: 15; Plant response rating, Foxtail, Giant [20, 21]: 0; Plant response rating, Foxtail, Giant [20, 22]: 0
2 | Fc1cnc(Oc2cccc(Cl)c2-n2cc(OC(F)F)cn2)nc1 [Compound 101] | 0 | 30 | 0 | 20 | 20 | 40 | 60 | 50 | 70 | 100 | 20 | 20 | 70 | 70 | 10 | 20 | 70 | 90 | 0 | 0 | Plant response rating, Ryegrass, Italian [12]: 0; Plant response rating, Ducksalad [13]: 0; Pigweed plant response rating (0 to 100 scale) [14]: 90; Plant response rating, Pigweed [14]: 100; Barnyardgrass plant response rating (0 to 100 scale) [15]: 60; Plant response rating, Barnyardgrass [15]: 70; Plant response rating, Wheat [16]: 20; Plant response rating, Rice [17]: 0; Plant response rating, Pigweed [18]: 90; Plant response rating, Barnyardgrass [19]: 0; Plant response rating, Foxtail, Giant [20, 21]: 20; Plant response rating, Foxtail, Giant [20, 22]: 60
